Reference: patent publication US10342796B2, “Acrylanilide derivative, preparation method, and applications thereof in pharmacy” (Ancureall Pharmaceutical (Shanghai) Co., Ltd., priority 2015, dated 2019)
Read-outs that look alike come from different tables or passages of the source.

What was measured:
Assay in all cases: Growth inhibition GI50 in vitro (CCK8/MTT, 72 h)
[1] = tested on: H1975 (EGFR L858R/T790M); format: cell-based, human; conditions: Homo sapiens, NCI-H1975
[2] = tested on: PC-9 (EGFR dE746-A750); format: cell-based, human; conditions: Homo sapiens
[3] = tested on: SW48 (EGFR G719S positive); format: cell-based; conditions: Homo sapiens, SW48; Table 15; 1000 nM to 0.03 nM serial dilution; read-out: GI50 SW48 (EGFR G719S)
Experimental: PC-9ER is an acquired Erlotinib resistance cell line of PC-9 cells developed by the investor. […] The four cell lines above were cultured with 1×RPMI1640 complete medium (supplement with 10% FBS). Human colon cancer cell line SW48 (EGFR G719S positive, ATCC). was cultured with L15 complete medium (10% FB S).
(§1) The suspension cells were collected by centrifugation. The supernatant was discard and the cell pellet was resuspended and counted. Different cell concentrations (5˜10×10^4 cells/mL) were prepared according to the growth cycle of each cell line and then seeded on a 96-well plate (Corning), 100 μL/well. The cells were incubated over night at 37° C., 5% CO2. The compounds were added to the cells on the second day with 2 wells in parallel. The final concentration of organic solvent shall not exceed 1%. The cells were continually incubated for 72 h, and then subjected to MTT assay.
(§2) The present compounds and the reference compounds were dissolved with DMSO (Sigma), respectively. […] The storage concentration of compounds was 10 mM and kept at −20° C. They were diluted by 2 times or 10 times with serial dilution before using.
(§3) Dojindo CCK8 reagent kit was used as MTT assay. […] FC meter was used as microplate reader.
(§4) Adherent cell culture medium was discard and immediately replaced with fresh prepared medium which contains 10% CCK8 reagent (100 μL/well). For the suspension cells, CCK8 was directly added to 10% of the final concentration. The cells were continually incubated for 1˜4 h. When the color of control wells turned to dark yellow, the absorption value was measured at OD450 nm. The cell growth rate was calculated according to the following formula: cell growth rate (%)=100*(T−T0)/(C−T0), T=optical density of drug treatment cell well—optical density of blank control well; T0=optical density of cell well before drug treatment—optical density of blank control well; C=optical density of cell well of solvent control group—optical density of blank control well. […] The experiment was independently repeated 1˜3 times, and subject to biological statistical analysis.
Each compound started at 1000 nM as an initial concentration and was diluted by […] with serial dilution to 0.03 nM.

[4] = tested on: N87 (HER2 Amp); format: cell-based, human; conditions: Homo sapiens
[5] = tested on: Calu-3 (Her2 amp); format: cell-based; conditions: Homo sapiens, Calu-3; Table 16; 1000 nM to 0.03 nM serial dilution; read-out: GI50 Calu3 (HER2 amp)
Experimental: (§5) Human lung adenocarcinoma cell line Calu-3 (ATCC) was cultured with 1×MEM complete medium (10% FBS, 1% double-antibiotics, 1% NEAA (Gibco), 2 mM glutamine and 1 mM of sodium pyruvate). Human breast cancer cell line SK-BR-3 was cultured with McCOY'S5A complete medium (10% FBS). Human colon cancer cell line SNU1040 (HER2 V777M positive) (ATCC) and human bronchoalveolar adenocarcinoma cell line NCI-H1781 (expressing HER2 exon 20 G776VC mutation) (ATCC) were cultured with 1×RPMI1640 complete medium (10% FBS), respectively.
as §1, §2, §3, §4

[6] = tested on: NCI-H1781 (HER2 exon 20 G776VC mutation); format: cell-based; conditions: Homo sapiens, NCI-H1781; Table 16; 1000 nM to 0.03 nM serial dilution; read-out: GI50 H1781 (HER2 G776VC)
Experimental: as §5
as §1, with “Adherent cells were digested with 0.25% pancreatin-EDTA (Gibco). The suspension” for “The suspension”
as §2, §3
(§6) Adherent cell culture medium was discard and immediately replaced with fresh prepared medium which contains 10% CCK8 reagent (100 μL/well). For the suspension cells, CCK8 was directly added to 10% of the final concentration. The cells were continually incubated for 1˜4 h. When the color of control wells turned to dark yellow, the absorption value was measured at OD450 nm. The cell growth rate was calculated according to the following formula: cell growth rate (%)=100*(T−T0)/(C−T0), T=optical density of drug treatment cell well—optical density of blank control well; T0=optical density of cell well before drug treatment—optical density of blank control well; C=optical density of cell well of solvent control group—optical density of blank control well. The concentration value of 50% inhibition of cell growth (GI50) was calculated. The experiment was independently repeated 1˜3 times, and subject to biological statistical analysis.
(§7) Furthermore, the present compounds (99, 136, 205, 211, 212, 213, 216, 229, 230, 231, 232, 233 and 236) were selected to carry out growth inhibition test for HER2/ERBB2 gene amplified or high expressed or mutant tumor cells. Afatinib and AZD9291 were used for references as second- and third-generation inhibitors of EGFR.
(§8) Each compound started at 1000 nM as an initial concentration and was diluted by 2 times with serial dilution to 0.03 nM. The GI50 value of each compound was calculated according to Test Example 1.3.

[7] = tested on: SNU1040 (HER2 V777M positive); format: cell-based; conditions: Homo sapiens; Table 16; 1000 nM to 0.03 nM serial dilution; read-out: GI50 SNU-1040 (HER2 V777M)
Experimental: as §5
as §1, with “Adherent cells were digested with 0.25% pancreatin-EDTA (Gibco). The suspension” for “The suspension”
as §2, §3, §6, §7, §8

[8] = tested on: H292 (EGFR WT); format: cell-based; conditions: Homo sapiens, NCI-H292; Table 15; 1000 nM to 0.03 nM serial dilution; read-out: GI50 H292 (EGFR WT)
Source text: EGFR wild type cell lines: human epidermal cancer cell line A431 (EGFR WT, amplification and high expression, from Shanghai Cell Bank of Chinese Academy of Sciences and ATCC), NSCLC cell lines NCI-H460 (EGFR WT, Kras G61H and PI3KCA E545K mutants, ATCC) and NCI-H1299 (EGFR WT, ATCC), melanoma cell line A375 (EGFR WT and BRAF V600E mutant, from Shanghai Cell Bank of Chinese Academy of Sciences, ATCC), human lung cancer cell line NCI-H292 (EGFR WT, from human lung mucoepidermoid carcinoma/lymphatic metastasis, purchased from Shanghai Cell Bank of Chinese Academy of Sciences) were cultured with 1×RPMI1640 complete medium which was supplement with 10% FBS. NSCLC cell line A549 (EGFR WT and Kras G12S mutant, from Shanghai Cell Bank of Chinese Academy of Sciences) was cultured with 1×Ham'S F12K complete medium which was supplement with 10% FBS, 1% double-antibiotics and 2 mM glutamine.
as §1, §2, §3, §4

[9] = tested on: A549 (EGFR WT); format: cell-based, human; conditions: Homo sapiens, A549
[10] = Table 13, 72 h, read-out: Range of GI50 H1975 (EGFR L858R/T790M)
[11] = Table 15, 1000 nM to 0.03 nM serial dilution, read-out: GI50 H1975 (EGFR L858R/T790M)
[12] = Table 13, 72 h, read-out: Range of GI50 PC-9 (EGFR dE746-A750)
[13] = Table 15, 1000 nM to 0.03 nM serial dilution, read-out: GI50 PC-9 (EGFR dE746-A750)
[14] = Table 13, 72 h, read-out: Range of GI50 N87 (HER2 Amp)
[15] = Table 16, 1000 nM to 0.03 nM serial dilution, read-out: GI50 N87 (HER2 amp)
[16] = Table 13, 72 h, read-out: Range of GI50 A549 (EGFR WT)
[17] = Table 15, 1000 nM to 0.03 nM serial dilution, read-out: GI50 A549 (EGFR WT)

GI50 [1, 10] [nM] | GI50 [1, 11] [nM] | GI50 [2, 12] [nM] | GI50 [2, 13] [nM] | GI50 [3] [nM] | GI50 [5] [nM] | GI50 [6] [nM] | GI50 [7] [nM] | GI50 [8] [nM] | GI50 [9, 16] [nM] | GI50 [9, 17] [nM] | Structure (SMILES) | GI50 [4, 14] [nM] | GI50 [4, 15] [nM]
10 to 100 | 19 | < 10 | 0.37 | 5.87 | 2.67 | 1.91 | 13.2 | > 1000 | > 1000 | > 1000 | C=CC(=O)Nc1cc(Nc2cc(Nc3cc(F)cc(C(F)(F)F)c3)ncn2)c(OC)cc1N(C)CCN(C)C [Compound 230, N-(5-(6-(5-fluoro-3-trifluoromethyl-phenylamino)-pyrimidin-4-yl-amino)-2-((2-dimethylamino-ethyl)-methyl-amino)-4-methoxyl-phenyl)-acrylamide] | < 10 | 3.9
10 to 100 | 19.5 | < 10 | 0.19 | 3.13 | 5.6 | 1.79 | 6.75 | > 1000 | > 1000 | > 1000 | C=CC(=O)Nc1cc(Nc2cc(Nc3cc(C(F)(F)F)ccc3F)ncn2)c(OC)cc1N(C)CCN(C)C [Compound 231, N-(5-(6-(2-fluoro-5-trifluoromethyl-phenylamino)-pyrimidin-4-yl-amino)-2-((2-dimethylamino-ethyl)-methyl-amino)-4-methoxyl-phenyl)-acrylamide] | < 10 | 4.21
10 to 100 | 16.9 | < 10 | 2.43 | 4.87 | 2.49 | 1.02 | 6.82 | > 1000 | > 1000 | > 1000 | C=CC(=O)Nc1cc(Nc2cc(Nc3cc(OC)cc(C(F)(F)F)c3)ncn2)c(OC)cc1N(C)CCN(C)C [Compound 232, N-(5-(6-(3-methoxyl-5-trifluoromethyl-phenylamino)-pyrimidin-4-yl-amino)-2-((2-dimethylamino-ethyl)-methyl-amino)-4-methoxyl-phenyl)-acrylamide] | < 10 | 1.92
